The values that follow come from patent publication US9074014B2 (Ipsen Pharma S.A.S., priority 2008, dated 2015).

The nature of series [1]: Rat plasma half-life assay. Type of series: in vitro ADME. As to conditions: rat plasma, 37° C., LC-MS; for half-life at 0.1 mg/ml: read-out: Rat Plasma T½ (converted).
The nature of series [2]: Human plasma half-life assay. The format is in vitro ADME. Conditions: human plasma, 37° C., LC-MS; for half-life at 0.1 mg/ml: read-out: Human Plasma T½ (converted).

*1 amine or outer side, *2 acyl side, *3 side chain or, on linkers, in order; H or OH if unused. Where no end group is shown, it is not given here. [ ]: non-standard residue; d: D form. NMeY = CN[C@@H](Cc1ccc(O)cc1)C(=O)O; X2 = O=C([C@@H]1CC(O)CN1[*:1])[*:2]; Tic = O=C(O)[C@@H]1Cc2ccccc2CN1; ΔPro = O=C(O)[C@@H]1C=CCN1; Pip = O=C(O)[C@@H]1CCCCN1; Ac6c = NC1(C(=O)O)CCCCC1; Nle = CCCC[C@H](N)C(=O)O; Ac5c = NC1(C(=O)O)CCCC1; Aib = CC(C)(N)C(=O)O

As to “H-[NMeY][Aib]EGTFISDY[Ac5c]IA[Nle]DKIHQQDFVNWLLAQKGKKNDWKHNITQ-OH [Example 113, (NMe-Tyr^1, Aib^2, A5c^11, Nle^14)hGIP(1-42)-OH]”, the half-life at 0.1 mg/ml in series [1] is 27 h; in series [2], 61.9 h.
Taken in the same sequence, the figures for “YAPGTFISDYSIA[Ac6c]DKIHQQDFVNWLLAQKGKKNDWKHNITQ-OH [Example 91, (Pro^3, A6c^14)hGIP(1-42)-OH]” were 1 h and 13.4 h.
Taken in the same sequence, the figures for “YAPGTFISDYSI[Aib]MDKIHQQDFVNWLLAQKGKKNDWKHNITQ [Example 75, (Pro^3, Aib^13)hGIP(1-42)-OH]” were 1.9 h and 26.1 h.
The like results for “YAPGTFISDYSI[Aib][Nle]DKIHQQDFVNWLLAQKGKKNDWKHNITQ-OH [Example 62, (Pro^3, Aib^13, Nle^14)hGIP(1-42)-OH]” were, in that order, 1.4 h and 11.4 h.
As for “YAPGTFISDY[Ac5c]IA[Ac6c]DKIHQQDFVNWLLAQKGKKNDWKHNITQ-OH [Example 102, (Pro^3, A5c^11, A6c^14)hGIP(1-42)-OH]”, the half-life at 0.1 mg/ml is 1.7 h in series [1] and 54.1 h in series [2].
Taken in the same sequence, the figures for “YA[Pip]GTFISDYSI[Aib]MDKIHQQDFVNWLLAQKGKKNDWKHNITQ [Example 65, (hPro^3, Aib^13)hGIP(1-42)-OH]” were 1.5 h and 14.3 h.
Taken in the same sequence, the figures for “YA[Pip]GTFISDYSI[Aib][Nle]DKIHQQDFVNWLLAQKGKKNDWKHNITQ-OH [Example 63, (hPro^3, Aib^13, Nle^14)hGIP(1-42)-OH]” were 1.4 h and 14.2 h.
Taken in the same sequence, the figures for “YA[Tic]GTFISDYSI[Aib]MDKIHQQDFVNWLLAQKGKKNDWKHNITQ [Example 66, (Tic^3, Aib^13)hGIP(1-42)-OH]” were 8.8 h and 19.1 h.
“YA[Tic]GTFISDY[Ac5c]IAMDKIHQQDFVNWLLAQKGKKNDWKHNITQ-OH [Example 82, (Tic^3, A5c^11)hGIP(1-42)-OH]”: the half-life at 0.1 mg/ml in series [1] is 10.2 h; in series [2], 9.7 h.
Taken in the same sequence, the figures for “YA[Tic]GTFISDY[Ac5c]IA[Ac6c]DKIHQQDFVNWLLAQKGKKNDWKHNITQ-OH [Example 89, (Tic^3, A5c^11, A6c^14)hGIP(1-42)-OH]” were 11.8 h and more than 48 h.
The like results for “YA[X2]GTFISDYSI[Aib]MDKIHQQDFVNWLLAQKGKKNDWKHNITQ [Example 67, (4Hyp^3, Aib^13)hGIP(1-42)-OH]” were, in that order, 1.6 h and more than 33 h.
Turning to “YA[ΔPro]GTFISDYSI[Aib][Nle]DKIHQQDFVNWLLAQKGKKNDWKHNITQ-OH [Example 64, (Dhp^3, Aib^13, Nle^14)hGIP(1-42)-OH]”, in series [1], the “Rat Plasma T½” value came to 47.5 h. Also, the “Human Plasma T½” value in series [2] is 41.3 h.
Consider “YGEGTFISDY[Ac5c]IAMDKIHQQDFVNWLLAQKGKKNDWKHNITQH-OH [Example 117, (Gly^2, A5c^11, His^43)hGIP(1-43)-OH]”, for which the half-life at 0.1 mg/ml is 10.5 h in series [1] and 25.2 h in series [2].
The like results for “Y[Ac5c]EGTF[Ac5c]SDYSIA[Ac6c]DKIHQQDFVNWLLAQKGKKNDWKHNITQ-OH [Example 56, (A5c^2,7, A6c^14)hGIP(1-42)-OH]” were, in that order, 9.2 h and 16 h.
In the case of “Y[Aib]EGTFISDYS[Ac5c]AMDKIHQQDFVNWLLAQKGKKNDWKHNITQ-OH [Example 7, (Aib^2, A5c^12)hGIP(1-42)-OH]”, the half-life at 0.1 mg/ml in series [1] is 5.3 h; in series [2], 37.1 h.
On to “Y[Aib]EGTFISDYS[Aib]AMDKIHQQDFVNWLLAQKGKKNDWKHNITQ-OH [Example 8, (Aib^2, 12)hGIP(1-42)-OH]”, for which the half-life at 0.1 mg/ml in series [1] was 4.5 h; in series [2], more than 48 h.
For “Y[Aib]EGTFISDY[Ac5c]IAMDKIHQQDFVNWLLAQKGKKNDWKHNITQ-OH [Example 53, (Aib^2, A5c^11)hGIP(1-42)-OH]”, the half-life at 0.1 mg/ml in series [1] was 51.7 h; in series [2], 33.3 h.
